In patent US11180462B2, “Microbiocidal oxadiazole derivatives” (SYNGENTA PARTICIPATIONS AG, priority 2015, dated 2021):

How the values were obtained:
[1] = system: Puccinia recondita f. Sp. Tritici; assay: Fungicidal activity against Puccinia recondita f. sp. tritici / wheat / leaf disc preventative (brown rust); assay type: in vivo; details: foliar, 200 ppm in the applied formulation, wheat leaf segments, preventative, compared to untreated control leaf disks, read-out: disease control
Method in brief: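 Compound application precedes infection: segments of wheat cv. Kanzler, sprayed at 200 ppm, are inoculated with a spore suspension after 1 day. Incubation is at 19° C. with 75% relative humidity and 12 h light/12 h darkness, and control versus untreated leaves is rated 7 to 9 days post-application.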

Phakopsora Pachyrhizi = assay: Fungicidal activity against Phakopsora pachyrhizi / soybean / leaf disc preventative (Asian soybean rust); assay type: in vivo; details: foliar, 200 ppm in the applied formulation, soybean leaf disks, compared to untreated control leaf disks, read-out: disease control
Method in brief: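 Preventative soybean leaf-disc test: discs on water agar sprayed with diluted formulated compound, inoculated one day later with spores on the lower surface. Held 24–36 h dark at 20°C, 75% rh, then 12 h light/day; percent disease control versus untreated discs scored 12–14 days after application.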

[2] = system: Puccinia recondita f. Sp. Tritici; assay: Fungicidal activity against Puccinia recondita f. sp. tritici / wheat / leaf disc curative (brown rust); assay type: in vivo; details: foliar, 24 h, 200 ppm in the applied formulation, wheat leaf segments, curative (applied 1 day after inoculation), compared to untreated control leaf disks, read-out: disease control
Method in brief: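 Segments of wheat cv. Kanzler were laid on agar and inoculated with a spore suspension of the rust, then held in darkness at 19° C and 75% relative humidity. One day later the water-diluted formulated compound was applied, with incubation continued under a 12 h light/dark cycle.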

[3] = system: Glomerella lagenarium (Colletotrichum lagenarium); assay: Fungicidal activity against Glomerella lagenarium (Colletotrichum lagenarium) liquid culture / cucumber / preventative (anthracnose); assay type: cell-based; details: Colletotrichum orbiculare; 20 ppm in the applied formulation; liquid culture (PDB), growth inhibition measured photometrically after 3 to 4 days; compared to untreated control; read-out: disease control
Method in brief: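 Photometric read-out of fungal growth after 2–7 days, expressed as percent antifungal activity versus untreated check. Cryo-stored conidia in PDB; compound at 20 ppm; dark, 24 °C, 96% RH.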

C#CCN(Cc1ccc(-c2noc(C(F)(F)F)n2)cc1)C(=O)CC#N [Compound 1.199, 2-cyano-N-prop-2-ynyl-N-[[4-[5-(trifluoromethyl)-1,2,4-oxadiazol-3-yl]phenyl]methyl]-acetamide]
≥ 80%: pest or weed control at 200 ppm [1] | pest or weed control at 200 ppm (Phakopsora Pachyrhizi) | pest or weed control at 200 ppm [2] | inhibition of growth at 20 ppm [3]

CCCC(=O)N(CCOC)Cc1ccc(-c2noc(C(F)(F)F)n2)cc1 [Compound 1.329, N-(2-methoxyethyl)-N-[[4-[5-(trifluoromethyl)-1,2,4-oxadiazol-3-yl]phenyl]methyl]-butanamide]
≥ 80%: pest or weed control at 200 ppm [1] | pest or weed control at 200 ppm (Phakopsora Pachyrhizi) | pest or weed control at 200 ppm [2] | inhibition of growth at 20 ppm [3]

CC1(C(=O)N(Cc2ccc(-c3noc(C(F)(F)F)n3)cc2)C2CC2)CC1 [Compound 1.118, N-cyclopropyl-1-methyl-N-[[4-[5-(trifluoromethyl)-1,2,4-oxadiazol-3-yl]phenyl]methyl]-cyclopropane-carboxamide]
≥ 80%: pest or weed control at 200 ppm [1] | pest or weed control at 200 ppm (Phakopsora Pachyrhizi) | pest or weed control at 200 ppm [2] | inhibition of growth at 20 ppm [3]

CC(C)N(Cc1ccc(-c2noc(C(F)(F)F)n2)cc1)C(=O)CC1CC1 [Compound 1.688, 2-cycloopropyl-N-isopropyl-N-[[4-[5-(trifluoromethyl)-1,2,4-oxadiazol-3-yl]phenyl]methyl]-acetamide]
≥ 80%: pest or weed control at 200 ppm [1] | pest or weed control at 200 ppm (Phakopsora Pachyrhizi) | pest or weed control at 200 ppm [2] | inhibition of growth at 20 ppm [3]

CCN(Cc1ccc(-c2noc(C(F)(F)F)n2)cc1)C(=O)NC1CC1 [Compound 3.53, 3-cyclopropyl-1-ethyl-1-[[4-[5-(trifluoromethyl)-1,2,4-oxadiazol-3-yl]phenyl]methyl]urea]
≥ 80%: pest or weed control at 200 ppm [1] | pest or weed control at 200 ppm (Phakopsora Pachyrhizi) | pest or weed control at 200 ppm [2] | inhibition of growth at 20 ppm [3]

CCN(Cc1ccc(-c2noc(C(F)(F)F)n2)cc1)C(=O)CC#N [Compound 1.510, 2-cyano-N-ethyl-N-[[4-[5-(trifluoromethyl)-1,2,4-oxadiazol-3-yl]phenyl]methyl]-acetamide]
≥ 80%: pest or weed control at 200 ppm [1] | pest or weed control at 200 ppm (Phakopsora Pachyrhizi) | pest or weed control at 200 ppm [2] | inhibition of growth at 20 ppm [3]

CCC(C)N(Cc1ccc(-c2noc(C(F)(F)F)n2)cc1)C(=O)C1(C#N)CC1 (centres unmarked) [Compound 1.399, 1-cyano-N-sec-butyl-N-[[4-[5-(trifluoromethyl)-1,2,4-oxadiazol-3-yl]phenyl]methyl]-cyclopropane-carboxamide]
≥ 80%: pest or weed control at 200 ppm [1] | pest or weed control at 200 ppm (Phakopsora Pachyrhizi) | pest or weed control at 200 ppm [2] | inhibition of growth at 20 ppm [3]

CCC(=O)OCCN(Cc1ccc(-c2noc(C(F)(F)F)n2)cc1)C(=O)CC [Compound 1.590, 2-[propanoyl-[[4-[5-(trifluoromethyl)-1,2,4-oxadiazol-3-yl]phenyl]methyl]-amino]ethyl propanoate]
≥ 80%: pest or weed control at 200 ppm [1] | pest or weed control at 200 ppm (Phakopsora Pachyrhizi) | pest or weed control at 200 ppm [2] | inhibition of growth at 20 ppm [3]

O=C(CC1CC1)N(O)Cc1ccc(-c2noc(C(F)(F)F)n2)cc1 [Compound 1.774, 2-cyclopropyl-N-hydroxy-N-[[4-[5-(trifluoromethyl)-1,2,4-oxadiazol-3-yl]phenyl]methyl]-acetamide]
≥ 80%: pest or weed control at 200 ppm [1] | pest or weed control at 200 ppm (Phakopsora Pachyrhizi) | pest or weed control at 200 ppm [2] | inhibition of growth at 20 ppm [3]

CON(Cc1ccc(-c2noc(C(F)(F)F)n2)cc1)C(=O)C1CSC1 [Compound 1.30, N-methoxy-N-[[4-[5-(trifluoromethyl)-1,2,4-oxadiazol-3-yl]phenyl]methyl]-thietane-3-carboxamide]
≥ 80%: pest or weed control at 200 ppm [1] | pest or weed control at 200 ppm (Phakopsora Pachyrhizi) | pest or weed control at 200 ppm [2] | inhibition of growth at 20 ppm [3]

C#CCN(Cc1ccc(-c2noc(C(F)(F)F)n2)cc1)C(=O)CCC(F)(F)F [Compound 1.169, 4,4,4-trifluoro-N-prop-2-ynyl-N-[[4-[5-(trifluoromethyl)-1,2,4-oxadiazol-3-yl]phenyl]methyl]-butanamide]
≥ 80%: pest or weed control at 200 ppm [1] | pest or weed control at 200 ppm (Phakopsora Pachyrhizi) | pest or weed control at 200 ppm [2] | inhibition of growth at 20 ppm [3]

CC1CC1C(=O)N(Cc1ccc(-c2noc(C(F)(F)F)n2)cc1)C(C)C (centres unmarked) [Compound 1.676, N-isopropyl-2-methyl-N-[[4-[5-(trifluoromethyl)-1,2,4-oxadiazol-3-yl]phenyl]methyl]-cyclopropane-carboxamide]
≥ 80%: pest or weed control at 200 ppm [1] | pest or weed control at 200 ppm (Phakopsora Pachyrhizi) | pest or weed control at 200 ppm [2] | inhibition of growth at 20 ppm [3]

N#CCC(=O)N(O)Cc1ccc(-c2noc(C(F)(F)F)n2)cc1 [Compound 1.771, 2-cyano-N-hydroxy-N-[[4-[5-(trifluoromethyl)-1,2,4-oxadiazol-3-yl]phenyl]methyl]-acetamide]
≥ 80%: pest or weed control at 200 ppm [1] | pest or weed control at 200 ppm (Phakopsora Pachyrhizi) | pest or weed control at 200 ppm [2] | inhibition of growth at 20 ppm [3]

C#CCN(Cc1ccc(-c2noc(C(F)(F)F)n2)cc1)C(=O)C(CC)COC (centres unmarked) [Compound 1.194, 2-(methoxymethyl)-N-prop-2-ynyl-N-[[4-[5-(trifluoromethyl)-1,2,4-oxadiazol-3-yl]phenyl]methyl]-butanamide]
≥ 80%: pest or weed control at 200 ppm [1] | pest or weed control at 200 ppm (Phakopsora Pachyrhizi) | pest or weed control at 200 ppm [2] | inhibition of growth at 20 ppm [3]

COC(C)C(=O)N(Cc1ccc(-c2noc(C(F)(F)F)n2)cc1)C(C)C (centres unmarked) [Compound 1.685, N-isopropyl-2-methoxy-N-[[4-[5-(trifluoromethyl)-1,2,4-oxadiazol-3-yl]phenyl]methyl]-propanamide]
≥ 80%: pest or weed control at 200 ppm [1] | pest or weed control at 200 ppm (Phakopsora Pachyrhizi) | pest or weed control at 200 ppm [2] | inhibition of growth at 20 ppm [3]

C#CCN(Cc1ccc(-c2noc(C(F)(F)F)n2)cc1)C(=O)CC(F)(F)F [Compound 1.177, 3,3,3-trifluoro-N-prop-2-ynyl-N-[[4-[5-(trifluoromethyl)-1,2,4-oxadiazol-3-yl]phenyl]methyl]-propanamide]
≥ 80%: pest or weed control at 200 ppm [1] | pest or weed control at 200 ppm (Phakopsora Pachyrhizi) | pest or weed control at 200 ppm [2] | inhibition of growth at 20 ppm [3]

CONC(=O)N(Cc1ccc(-c2noc(C(F)(F)F)n2)cc1)OC [Compound 3.22, 1,3-dimethoxy-1-[[4-[5-(trifluoromethyl)-1,2,4-oxadiazol-3-yl]phenyl]methyl]urea]
≥ 80%: pest or weed control at 200 ppm [1] | pest or weed control at 200 ppm (Phakopsora Pachyrhizi) | pest or weed control at 200 ppm [2] | inhibition of growth at 20 ppm [3]

CCC(COC)C(=O)N(O)Cc1ccc(-c2noc(C(F)(F)F)n2)cc1 (centres unmarked) [Compound 1.768, N-hydroxy-2-(methoxymethyl)-N-[[4-[5-(trifluoromethyl)-1,2,4-oxadiazol-3-yl]phenyl]methyl]-butanamide]
≥ 80%: pest or weed control at 200 ppm [1] | pest or weed control at 200 ppm (Phakopsora Pachyrhizi) | pest or weed control at 200 ppm [2] | inhibition of growth at 20 ppm [3]

COCCN(Cc1ccc(-c2noc(C(F)(F)F)n2)cc1)C(=O)C1CCCO1 (centres unmarked) [Compound 1.355, N-(2-methoxyethyl)-N-[[4-[5-(trifluoromethyl)-1,2,4-oxadiazol-3-yl]phenyl]methyl]-tetrahydrofuran-2-carboxamide]
≥ 80%: pest or weed control at 200 ppm [1] | pest or weed control at 200 ppm (Phakopsora Pachyrhizi) | pest or weed control at 200 ppm [2] | inhibition of growth at 20 ppm [3]

COCCC(=O)N(Cc1ccc(-c2noc(C(F)(F)F)n2)cc1)C(C)C [Compound 1.674, N-isopropyl-3-methoxy-N-[[4-[5-(trifluoromethyl)-1,2,4-oxadiazol-3-yl]phenyl]methyl]-propanamide]
≥ 80%: pest or weed control at 200 ppm [1] | pest or weed control at 200 ppm (Phakopsora Pachyrhizi) | pest or weed control at 200 ppm [2] | inhibition of growth at 20 ppm [3]

COC(C)C(=O)N(Cc1ccc(-c2noc(C(F)(F)F)n2)cc1)CC(F)(F)F (centres unmarked) [Compound 1.703, 2-methoxy-N-(2,2,2-trifluoroethyl)-N-[[4-[5-(trifluoromethyl)-1,2,4-oxadiazol-3-yl]phenyl]methyl]-propanamide]
≥ 80%: pest or weed control at 200 ppm [1] | pest or weed control at 200 ppm (Phakopsora Pachyrhizi) | pest or weed control at 200 ppm [2] | inhibition of growth at 20 ppm [3]

CON(Cc1ccc(-c2noc(C(F)(F)F)n2)cc1)C(=O)C(C)(C)CCl [Compound 1.35, 3-chloro-N-methoxy-2,2-dimethyl-N-[[4-[5-(trifluoromethyl)-1,2,4-oxadiazol-3-yl]phenyl]methyl]-propanamide]
≥ 80%: pest or weed control at 200 ppm [1] | pest or weed control at 200 ppm (Phakopsora Pachyrhizi) | pest or weed control at 200 ppm [2] | inhibition of growth at 20 ppm [3]

CCC(COC)C(=O)N(Cc1ccc(-c2noc(C(F)(F)F)n2)cc1)C1CC1 (centres unmarked) [Compound 1.134, N-cyclopropyl-2-(methoxymethyl)-N-[[4-[5-(trifluoromethyl)-1,2,4-oxadiazol-3-yl]phenyl]methyl]-butanamide]
≥ 80%: pest or weed control at 200 ppm [1] | pest or weed control at 200 ppm (Phakopsora Pachyrhizi) | pest or weed control at 200 ppm [2] | inhibition of growth at 20 ppm [3]
